Laboratory results from paper PMC5421785, “Citrullination only infrequently impacts peptide binding to HLA class II MHC” (PLoS ONE, 2017).
Where two headings read alike, the source gives them in different places. Square brackets hold non-standard residues; d marks the D form. Peptide text beside a SMILES is read from it. Cit = NC(=O)NCCC[C@H](N)C(=O)O

How the values were obtained:
HLA-DRB1*01:01 = molecular target: T1, HLA-DRB1*01:01 (Homo sapiens, UniProt P01903+P01911, A100R/D57E/F55L/F60I/F76Y/I96L/L162R/M171V/P40L/Q125E/R42F/V115G/Y59C); assay: HLA class II peptide binding, inhibition of radiolabeled peptide binding to purified MHC
T1 construct: EBV transformed homozygous cell lines were used as sources of MHC molecules; endogenous in cells; host or cells: EBV transformed homozygous cell lines

HLA-DRB1*04:01 = molecular target: T2, HLA-DRB1*04:01 (Homo sapiens, UniProt P01903+P01911, A100K/A169T/F76Y/I96L/K127E/L162R/M171V/N62H/P40V/Q125Y/R42H/S133A/S149N/S66Y/V115G/V209L/W38E); assay: as above
T2 construct: EBV transformed homozygous cell lines were used as sources of MHC molecules; endogenous in cells; host or cells: EBV transformed homozygous cell lines

[1] = citrullinated 15-mer peptide (X = citrulline), purified HLA-DRB1*01:01, read-out: DRB1*01:01 binding capacity, Cit peptide (IC50 nM)
[2] = ratio of WT IC50 to Cit IC50, >1 = citrullination increases binding
[3] = citrullinated 15-mer peptide (X = citrulline), purified HLA-DRB1*04:01, read-out: DRB1*04:01 binding capacity, Cit peptide (IC50 nM)
[4] = citrullinated 15-mer (X), purified MHC, inhibition of radiolabeled peptide binding, dash = IC50 >40,000 nM, read-out: DRB1*01:01 binding capacity, Cit peptide (IC50 nM)
[5] = citrullinated 15-mer (X), purified MHC, inhibition of radiolabeled peptide binding, dash = IC50 >40,000 nM, read-out: DRB1*04:01 binding capacity, Cit peptide (IC50 nM)
[6] = read-out: DRB1*01:01 binding capacity, WT peptide (IC50 nM)
[7] = read-out: DRB1*04:01 binding capacity, WT peptide (IC50 nM)

| Compound | IC50 (HLA-DRB1*01:01; [4]) | IC50 (HLA-DRB1*04:01; [5]) | also measured |
| --- | --- | --- | --- |
| CSCC[C@H](NC(=O)[C@H](CCC(=O)O)NC(=O)[C@H](CCCNC(=N)N)NC(=O)[C@H](CCSC)NC(=O)[C@H](CCC(N)=O)NC(=O)[C@H](CCCNC(N)=O)NC(=O)[C@H](CCC(=O)O)NC(=O)[C@H](CC(C)C)NC(=O)[C@H](CO)NC(=O)[C@H](CCC(=O)O)NC(=O)[C@H](CC(N)=O)NC(=O)[C@@H](N)[C@@H](C)O)C(=O)N[C@@H](CCC(=O)O)C(=O)N[C@@H](CCC(=O)O)C(=O)N[C@@H](CC(N)=O)C(=O)O [TNESLEXQMREMEEN] (H-TNESLE[Cit]QMREMEEN-OH; N-terminus and C-terminus assumed) | – | – | IC50 (HLA-DRB1*01:01; [1]): > 40000 nM; DRB1*01:01 binding capacity, WT/cit ratio (HLA-DRB1*01:01; [2]): 0.318; IC50 (HLA-DRB1*04:01; [3]): > 40000 nM; DRB1*04:01 binding capacity, WT/cit ratio (HLA-DRB1*04:01; [2]): 1.0 |
| CC(C)C[C@H](NC(=O)[C@H](CC(N)=O)NC(=O)[C@@H](N)[C@@H](C)O)C(=O)N[C@@H](CC(=O)O)C(=O)N[C@@H](CO)C(=O)N[C@@H](CC(C)C)C(=O)N1CCC[C@H]1C(=O)N[C@@H](CC(C)C)C(=O)N[C@H](C(=O)N[C@@H](CC(=O)O)C(=O)N[C@H](C(=O)N[C@@H](Cc1c[nH]cn1)C(=O)N[C@@H](CO)C(=O)N[C@@H](CCCCN)C(=O)N[C@@H](CCCNC(N)=O)C(=O)O)[C@@H](C)O)C(C)C [TNLDSLPLVDTHSKX] (H-TNLDSLPLVDTHSK[Cit]-OH) | – | – | IC50 (HLA-DRB1*01:01; [1]): 772 nM; IC50 (HLA-DRB1*04:01; [3]): > 40000 nM |
| CC[C@H](C)[C@H](NC(=O)[C@@H](NC(=O)[C@H](CCC(N)=O)NC(=O)CNC(=O)[C@H](CC(=O)O)NC(=O)[C@H](CCCNC(N)=O)NC(=O)[C@@H](NC(=O)[C@H](CCC(=O)O)NC(=O)[C@@H](NC(=O)[C@@H](N)[C@@H](C)O)C(C)C)[C@@H](C)O)C(C)C)C(=O)N[C@@H](CC(N)=O)C(=O)N[C@@H](CCC(=O)O)C(=O)N[C@H](C(=O)N[C@@H](CO)C(=O)N[C@@H](CCC(N)=O)C(=O)O)[C@@H](C)O [TVETXDGQVINETSQ] (H-TVET[Cit]DGQVINETSQ-OH) | – | – | IC50 (HLA-DRB1*01:01; [1]): 7860 nM; IC50 (HLA-DRB1*04:01; [3]): 14300 nM |
| CC(C)C[C@H](NC(=O)[C@H](CCC(N)=O)NC(=O)[C@H](CC(=O)O)NC(=O)[C@@H](N)C(C)C)C(=O)N[C@H](C(=O)N[C@@H](CC(N)=O)C(=O)N[C@@H](CC(=O)O)C(=O)N[C@@H](CCCCN)C(=O)N[C@@H](C)C(=O)N[C@@H](CCCNC(=N)N)C(=O)N[C@H](C(=O)N[C@@H](CCC(=O)O)C(=O)N[C@H](C(=O)N[C@@H](CCC(=O)O)C(=O)N[C@@H](CCCNC(N)=O)C(=O)O)C(C)C)C(C)C)[C@@H](C)O [VDQLTNDKARVEVEX] (H-VDQLTNDKARVEVE[Cit]-OH) | 7420 nM | > 40000 nM | – |
| CC(C)C[C@H](NC(=O)[C@H](CCC(N)=O)NC(=O)[C@H](CC(=O)O)NC(=O)[C@@H](N)C(C)C)C(=O)N[C@H](C(=O)N[C@@H](CC(N)=O)C(=O)N[C@@H](CC(=O)O)C(=O)N[C@@H](CCCCN)C(=O)N[C@@H](C)C(=O)N[C@@H](CCCNC(N)=O)C(=O)N[C@H](C(=O)N[C@@H](CCC(=O)O)C(=O)N[C@H](C(=O)N[C@@H](CCC(=O)O)C(=O)N[C@@H](CCCNC(=N)N)C(=O)O)C(C)C)C(C)C)[C@@H](C)O [VDQLTNDKAXVEVER] (H-VDQLTNDKA[Cit]VEVER-OH) | 20400 nM | > 40000 nM | – |
| CC[C@H](C)[C@H](NC(=O)[C@H](CC(=O)O)NC(=O)[C@H](CCC(=O)O)NC(=O)[C@H](C)NC(=O)[C@H](CC(C)C)NC(=O)[C@H](CC(N)=O)NC(=O)[C@H](CC(=O)O)NC(=O)[C@H](CCCNC(=N)N)NC(=O)[C@H](CCC(=O)O)NC(=O)[C@@H](NC(=O)[C@H](CCC(=O)O)NC(=O)[C@@H](N)C(C)C)C(C)C)C(=O)N[C@@H](CCSC)C(=O)N[C@@H](CCCNC(N)=O)C(=O)N[C@@H](CC(C)C)C(=O)O [VEVERDNLAEDIMXL] (H-VEVERDNLAEDIM[Cit]L-OH) | 19600 nM | 17100 nM | – |
| CC[C@H](C)[C@H](NC(=O)[C@H](CC(=O)O)NC(=O)[C@H](CCC(=O)O)NC(=O)[C@H](C)NC(=O)[C@H](CC(C)C)NC(=O)[C@H](CC(N)=O)NC(=O)[C@H](CC(=O)O)NC(=O)[C@H](CCCNC(N)=O)NC(=O)[C@H](CCC(=O)O)NC(=O)[C@@H](NC(=O)[C@H](CCC(=O)O)NC(=O)[C@@H](N)C(C)C)C(C)C)C(=O)N[C@@H](CCSC)C(=O)N[C@@H](CCCNC(=N)N)C(=O)N[C@@H](CC(C)C)C(=O)O [VEVEXDNLAEDIMRL] (H-VEVE[Cit]DNLAEDIMRL-OH) | 27100 nM | 16300 nM | – |
| CC(C)C[C@H](NC(=O)[C@H](CC(C)C)NC(=O)[C@@H](NC(=O)[C@H](CC(C)C)NC(=O)[C@H](CC(C)C)NC(=O)[C@@H](N)C(C)C)[C@@H](C)O)C(=O)N[C@H](C(=O)N[C@@H](C)C(=O)N[C@@H](C)C(=O)N[C@H](C(=O)N[C@@H](CC(C)C)C(=O)N[C@@H](CCCNC(N)=O)C(=O)N[C@@H](CS)C(=O)N[C@@H](CCC(N)=O)C(=O)NCC(=O)O)C(C)C)C(C)C [VLLTLLVAAVLXCQG] (H-VLLTLLVAAVL[Cit]CQG-OH) | – | – | IC50 (HLA-DRB1*01:01; [1]): 29 nM; IC50 (HLA-DRB1*04:01; [3]): > 40000 nM |
| CSCC[C@H](NC(=O)[C@H](CCCNC(N)=O)NC(=O)[C@H](CCCNC(=N)N)NC(=O)[C@H](Cc1ccc(O)cc1)NC(=O)[C@H](CO)NC(=O)[C@H](CO)NC(=O)[C@H](CO)NC(=O)[C@H](CO)NC(=O)[C@@H](N)C(C)C)C(=O)N[C@@H](Cc1ccccc1)C(=O)NCC(=O)NCC(=O)N1CCC[C@H]1C(=O)NCC(=O)N[C@H](C(=O)O)[C@@H](C)O [VSSSSYRXMFGGPGT] (H-VSSSSYR[Cit]MFGGPGT-OH) | 60 nM | 974 nM | – |
| CSCC[C@H](NC(=O)[C@H](CCCNC(=N)N)NC(=O)[C@H](CCCNC(N)=O)NC(=O)[C@H](Cc1ccc(O)cc1)NC(=O)[C@H](CO)NC(=O)[C@H](CO)NC(=O)[C@H](CO)NC(=O)[C@H](CO)NC(=O)[C@@H](N)C(C)C)C(=O)N[C@@H](Cc1ccccc1)C(=O)NCC(=O)NCC(=O)N1CCC[C@H]1C(=O)NCC(=O)N[C@H](C(=O)O)[C@@H](C)O [VSSSSYXRMFGGPGT] (H-VSSSSY[Cit]RMFGGPGT-OH) | 37 nM | 906 nM | – |
| CC(C)C[C@H](NC(=O)[C@H](C)NC(=O)[C@H](CO)NC(=O)CNC(=O)[C@H](CC(C)C)NC(=O)[C@H](CO)NC(=O)[C@H](Cc1ccc(O)cc1)NC(=O)[C@@H](NC(=O)[C@H](CCCNC(=N)N)NC(=O)[C@@H](NC(=O)[C@H](CO)NC(=O)[C@@H](NC(=O)[C@@H](NC(=O)[C@@H](N)C(C)C)[C@@H](C)O)[C@@H](C)O)[C@@H](C)O)[C@@H](C)O)C(=O)N[C@@H](CCCNC(N)=O)C(=O)O [VTTSTRTYSLGSALX] (H-VTTSTRTYSLGSAL[Cit]-OH) | 9.6 nM | 847 nM | – |
| CC(C)C[C@H](NC(=O)[C@H](C)NC(=O)[C@H](CO)NC(=O)CNC(=O)[C@H](CC(C)C)NC(=O)[C@H](CO)NC(=O)[C@H](Cc1ccc(O)cc1)NC(=O)[C@@H](NC(=O)[C@H](CCCNC(N)=O)NC(=O)[C@@H](NC(=O)[C@H](CO)NC(=O)[C@@H](NC(=O)[C@@H](NC(=O)[C@@H](N)C(C)C)[C@@H](C)O)[C@@H](C)O)[C@@H](C)O)[C@@H](C)O)C(=O)N[C@@H](CCCNC(=N)N)C(=O)O [VTTSTXTYSLGSALR] (H-VTTST[Cit]TYSLGSALR-OH) | 7.2 nM | 1480 nM | – |
| CC[C@H](C)[C@H](NC(=O)[C@H](CCCCN)NC(=O)[C@H](CC(N)=O)NC(=O)[C@H](CCC(N)=O)NC(=O)[C@H](CCC(N)=O)NC(=O)[C@H](CCC(=O)O)NC(=O)[C@H](CC(C)C)NC(=O)[C@H](Cc1ccccc1)NC(=O)[C@H](CCCNC(N)=O)NC(=O)[C@@H](N)C(C)C)C(=O)N[C@@H](CC(C)C)C(=O)N[C@@H](CC(C)C)C(=O)N[C@@H](C)C(=O)N[C@@H](CCC(=O)O)C(=O)N[C@@H](CC(C)C)C(=O)O [VXFLEQQNKILLAEL] | 7.8 nM | 6590 nM | – |
| CC(C)C[C@H](NC(=O)[C@H](C)NC(=O)[C@H](CO)NC(=O)CN)C(=O)N[C@@H](CCCNC(=N)N)C(=O)N1CCC[C@H]1C(=O)N[C@@H](CO)C(=O)N[C@H](C(=O)N[C@@H](CO)C(=O)N[C@@H](CCCNC(=N)N)C(=O)N[C@@H](CO)C(=O)N[C@@H](CC(C)C)C(=O)N[C@@H](Cc1ccc(O)cc1)C(=O)N[C@@H](C)C(=O)N[C@@H](CO)C(=O)O)[C@@H](C)O [Vimentin 41 WT] | – | – | IC50 (HLA-DRB1*01:01; [6]): 3.4 nM; IC50 (HLA-DRB1*04:01; [7]): 860 nM |
| CC(C)C[C@H](NC(=O)[C@H](CO)NC(=O)[C@H](CCCNC(=N)N)NC(=O)[C@H](CO)NC(=O)[C@@H](NC(=O)[C@H](CO)NC(=O)[C@@H]1CCCN1)[C@@H](C)O)C(=O)N[C@@H](Cc1ccc(O)cc1)C(=O)N[C@@H](C)C(=O)N[C@@H](CO)C(=O)N[C@@H](CO)C(=O)N1CCC[C@H]1C(=O)NCC(=O)NCC(=O)N[C@H](C(=O)O)C(C)C [Vimentin 46 WT] | – | – | IC50 (HLA-DRB1*01:01; [6]): 290 nM; IC50 (HLA-DRB1*04:01; [7]): 1050 nM |
| CC(C)C[C@H](NC(=O)[C@@H](N)CO)C(=O)N[C@@H](Cc1ccc(O)cc1)C(=O)N[C@@H](C)C(=O)N[C@@H](CO)C(=O)N[C@@H](CO)C(=O)N1CCC[C@H]1C(=O)NCC(=O)NCC(=O)N[C@H](C(=O)N[C@@H](Cc1ccc(O)cc1)C(=O)N[C@@H](C)C(=O)N[C@H](C(=O)N[C@@H](CCCNC(=N)N)C(=O)N[C@@H](CO)C(=O)O)[C@@H](C)O)C(C)C [Vimentin 51 WT] | – | – | IC50 (HLA-DRB1*01:01; [6]): 75 nM; IC50 (HLA-DRB1*04:01; [7]): 6110 nM |
